Test results from patent US20160367708A1, “COMPOSITIONS AND METHODS OF TREATING CANCER” (THE JOHNS HOPKINS UNIVERSITY, priority 2013, published 2016).

How the values were obtained:
HeLa cell xenografts = details: applicants' earlier work, cited from earlier work; for inhibition of xenograft tumor growth: nude mice, single low-dose IV injection
[1] = system: Syngeneic BALB/c CRL2836 tumors; test: ^32P-mediated tumor growth inhibition in syngeneic BALB/c mice; assay type: in vivo, mouse; details: for inhibition of established syngeneic tumor growth: single IV injection of 5 μCi ten days after tumor cell injection
Description: FIG. 5. Inhibition of BALB/c syngeneic tumor growth by [^32P]PO4. Syngeneic BALB/c CRL2836 tumors were established in the rear flanks of BALB/c mice at Day 0. After ten days during which the tumors became well vascularized, mice received an injection of 5 μCi of [^32P]PO4 intra-venously via the tail vein. The tumor volumes are shown as the mean of six tumors plus/minus the standard error of the mean. The student's two-sided t-test determined the P value shown.
Establishment of mouse tumors. Syngeneic BALB/c mouse tumors were established by injecting 2×10^6 BALB/c tumor CRL2836 cells ([…], Manassas, Va.) in a volume of 0.2 mL (50% Matrigel, 50% 1×PBS) subcutaneously in the left rear and right rear flank. All mice were female, 10 weeks of age, and purchased from Charles River Laboratories (Wilmington, Mass.).
^32P-Mediated tumor growth inhibition. After ten days, during which time well-vascularized tumors were established, an injection of 5 μCi of the monophosphate form of ^32P (Perkin-Elmer, Cat. # NEX06000) was injected intravenously via the tail vein in 0.1 mL of 1×HBSS. Six tumors (three animals) were studied in each group. After injection, tumor growth was measured three times per week with a digital caliper and the volume was determined using the formula: volume=½(width)^2×(length).
Statistical analysis. The data from the WST-1 cell proliferation are presented as means±standard deviation and the significance was determined using the unpaired Student's t test. The tumor volumes of the untreated and treated mice are shown as means±SE and no outliers were excluded for any reason. The significance was determined using the unpaired Student's t test.

[2] = system: BALB/c tumor CRL2836 cells; test: WST-1 cell proliferation assay, [^32P]PO4 versus ^90Y; assay type: cell-based, mouse
Procedure: (§1) FIG. 2. Inhibition of cell growth by [^32P]PO4 or [^90Y]. The WST-1 proliferation assay was done to determine the level of cell kill by ^32P or by ^90Y. BALB/c tumor CRL2836 cells or HeLa cells were exposed to 0 Ci, 1 μCi, 2.5 μCi, or 5 μCi in complete medium. After 24 hours, the radioactivity was removed and cells were grown in non-radioactive complete medium. WST-1 cell proliferation assays were done at Days 1, 2, 3, 4, and 5 and all assays were done in triplicate. The mean is shown plus/minus the standard deviation. The student's two-sided t-test determined the P value shown.
(§2) Measurement of in vitro cell killing by ^32P and ^90Y. Two thousand cells of the mouse BALB/c CRL2836 cell line or the human HeLa cell line were grown in complete medium in a 96-well plate and at Day 0 were exposed to either 0, 1, 2.5, or 5 μCi of ^90Y radioisotope or the [^32P]PO4 radioisotope in complete medium. After a 24 h incubation, the radioisotope-containing medium was removed and replaced with non-radioactive complete medium (Day 1). […]
(§3) Statistical analysis. The data from the WST-1 cell proliferation are presented as means±standard deviation and the significance was determined using the unpaired Student's t test. […] The significance was determined using the unpaired Student's t test.

HeLa cells [3] = test: as above; assay type: cell-based, human
Procedure: as §1, §2, §3

[4] = system: mouse BALB/c CRL2836 cell line or the human HeLa cell line; test: WST-1 cell proliferation assay, ^32P taken up from the medium versus ^32P held in tubes (electron bombardment only); assay type: cell-based; details: isotope added directly to the medium for 1 day, compared with isotope kept in tubes in the wells; followed up to six days
Procedure: FIG. 1. A cell proliferation assay using WST-1 was performed to assess the relative cell killing ability of ^32Pmonophosphate that is taken up by cells into the DNA versus that which is not taken up by the cells, but subjected only to electron bombardment.
Measurement of In Vitro Cell Killing by ^32P Radioisotope. Two thousand cells of the mouse BALB/c CRL2836 cell line or the human HeLa cell line were growing in complete medium in wells of a 96-well plate and were exposed to either 0 uCi, 3 uCi or 10 uCi of the [^32P]pyrophosphate or the [^32P]monophosphate radioisotopes. One set of triplicate wells contained medium with the designated form of the isotope, while another set of triplicate wells had the isotope contained in small tubes placed in the wells. […] After a 24 hour exposure time, fresh non-radioactive medium was added and WST-1 proliferation assays were done at several subsequent time points.
To assess the relative cell killing ability of [^32P]monophosphate that is taken up by cells into the DNA versus that of is not taken up by the cells, but subjected only to electron bombardment, a cell proliferation assay using WST-1 was undertaken (FIG. 1). […]

HeLa cells [5] = test: H2AX immunostain assay of double-strand DNA breaks, ^32P versus ^90Y; assay type: cell-based, human; details: 3 μCi for 24 h, Day 1, 2 or 3
Procedure: FIG. 4. Determination of double-strand DNA breaks in cells caused by exposure to [^32P]PO4 or ^90Y. HeLa cells or mouse BALB/c CRL2836 cells were grown in multiple sections of chamber slides and exposed to 0 μCi or 3 μCi of [^32P]PO4 or ^90Y in complete medium at Day 0. After 24 hours, the radioactivity was removed and cells were grown in non-radioactive complete medium. At Day 1, 2, or 3 the presence of double-strand DNA breaks in the cells was determined by staining for phosphorylated H2-AX histones which indicate double-strand DNA damage.
Assessment of Double-Strand DNA Breaks by ^32P and ^90Y. Ten thousand HeLa cells were seeded in Lab-TekII chamber slides (Thermo Fisher Scientific Inc., Waltham, Mass.). At Day 0 cells were treated with 0 or 3 μCi of ^32P or ^90Y in complete medium. At Day 1, all wells were gently washed and fresh non-radioactive medium was added. At Day 1, Day 2, or Day 3, cells were fixed with 10% formalin at room temperature for 10 min, washed with PBS for two min, and permeabilized with 0.2% Triton X-100 with 10% FBS in PBS for 15 min. After a rinse with PBS, primary mouse anti-human H2AX antibody with 1:1000 dilution (Millipore, Billerica, Mass.) was incubated for 1 h at ambient temperature, and washed twice with PBS for 5 min. […]

[6] = 24 h exposure to identical amounts of isotope

Compound | inhibition of xenograft tumor growth (HeLa cell xenografts) | detrimental effects (weight gain, general activity, overall health) (HeLa cell xenografts; xenografted nude mice) | effects on the health of the mice (weight gain, overall activity levels) ([1]; single IV injection of 5 μCi) | inhibition of established syngeneic tumor growth [1] | inhibition of established syngeneic tumor growth ([1]; listed as 32P) | survival rates at Day 5 relative to ^90Y ([2]; 2.5 μCi and 5 μCi doses, Day 5) | cell killing efficiency compared with ^90Y [2, 6] | survival rates at Day 5 relative to ^90Y (HeLa cells [3]; 2.5 μCi and 5 μCi doses, Day 5) | cell killing efficiency compared with ^90Y (HeLa cells [3]; [6]) | cell death as monitored by the lack of cell growth [4] | double-strand DNA breakage (nuclear staining for phosphorylated H2AX) (HeLa cells [5])
O=[32P](O)(O)O [[^32P]PO4, ^32P monophosphate] | strongly and effectively inhibited tumor growth | no apparent detrimental effects | no apparent detrimental effects | significantly inhibited | strongly and effectively inhibited tumor growth | barely half of those produced by ^90Y | killed cells more efficiently than did ^90Y | barely half of those produced by ^90Y | killed cells more efficiently than did ^90Y | far greater levels of cell death | significant, time-dependent double-strand DNA breakage
[^32P]ATP | significant inhibition | – | – | – | – | – | – | – | – | – | –
